Values after ≈ are worked out from the molar mass of the structure shown.
Each compound was assayed on A2780 (assay: Cytotoxicity against human A2780 cells).
Format: functional, cell-based
For `C=C(C)[C@@H]1CC[C@]2(C)CC[C@]3(C)[C@H](CC[C@@H]4[C@@]5(COC(C)=O)CC[C@H](OC(C)=O)C(C)(C)[C@@H]5CC[C@]43C)[C@@H]12`, the IC50 was 9.6 µg/mL (≈ 18.2 µM). Compound `C=C(C)[C@@H]1CC[C@]2(C=O)CC[C@]3(C)[C@H](CC[C@@H]4[C@@]5(C)CC[C@@H](O)C(C)(C)[C@@H]5CC[C@]43C)[C@@H]12` has an IC50 of no less than 20 µg/mL. `C=C(C)[C@@H]1CC[C@]2(C)CC[C@]3(C)[C@H](C[C@@H](O)[C@@H]4[C@]56CC[C@H](OC5=O)C(C)(C)[C@@H]6CC[C@]43C)[C@@H]12` was tested, and the IC50 was 18 µg/mL (≈ 39.6 µM). For `C=C(C)[C@@H]1CC[C@]2(C(=O)O)CC[C@]3(C)[C@H](CC[C@@H]4[C@@]5(C)CCCC(C)(C)[C@@H]5CC[C@]43C)[C@@H]12`, the IC50 was 17.4 µg/mL (≈ 39.5 µM). With `C=C(C)[C@@H]1CC[C@]2(COC(C)=O)CC[C@]3(C)[C@H](CC[C@@H]4[C@@]5(C)CC[C@H](OC(C)=O)C(C)(C)[C@@H]5CC[C@]43C)[C@@H]12` [BETULIN DIACETATE] the IC50 was no less than 20 µg/mL. `C=C(C)[C@@H]1CC[C@]2(C(=O)O)CC[C@]3(C)[C@H](CC[C@@H]4[C@@]5(C)CC[C@H](O)C(C)(C)[C@@H]5CC[C@]43C)[C@@H]12` [BETULINIC ACID] was tested, and the IC50 was no less than 20 µg/mL. With `C=C(C)[C@@H]1CC[C@]2(C(=O)O)CC[C@]3(C)[C@H](CC[C@@H]4[C@@]5(C)CC[C@@H](O)C(C)(C)[C@@H]5CC[C@]43C)[C@@H]12` [EPIBETULINIC ACID] the IC50 was no less than 20 µg/mL. With `C=C(C)[C@@H]1CC[C@]2(C)CC[C@]3(C)[C@H](CC[C@@H]4[C@@]5(C)CC[C@H](OC(C)=O)C(C)(C)[C@@H]5CC[C@]43C)[C@@H]12` [LUPENYL ACETATE] the IC50 was 16 µg/mL. In the case of `C=C(C)[C@@H]1CC[C@]2(C)CC[C@]3(C)[C@H](CC[C@@H]4[C@@]5(C)CC[C@H](O)C(C)(C)[C@@H]5CC[C@]43C)[C@@H]12` [LUPEOL], the IC50 is reported as no less than 20 µg/mL. `CC1(C)CC[C@]2(C(=O)O)CC[C@]3(C)C(=CC[C@@H]4[C@@]5(C)CC[C@H](O)C(C)(C)[C@@H]5CC[C@]43C)[C@@H]2C1` [OLEANOLIC_ACID] showed an IC50 of no less than 20 µg/mL. Work on `C[C@H]1[C@H](C)CC[C@]2(C(=O)O)CC[C@]3(C)C(=CC[C@@H]4[C@@]5(C)CC[C@H](O)C(C)(C)[C@@H]5CC[C@]43C)[C@H]12` [URSOLIC ACID] yielded an IC50 of no less than 20 µg/mL.
